This is an account of results in US9943542B2, “Compositions and methods for obtaining an improved lung function” (PHARMALUNDENSIS AB, priority 2013, dated 2018).

Data set [1] concerns the target human sodium/iodide symporter (Homo sapiens, UniProt Q92911). The conditions noted are these: versus perchlorate, on a molar concentration basis in serum; cited from earlier work.
Data set [2] relates to patients with stable chronic bronchitis. As to conditions: cited from earlier work.
Data set [3] relates to lung function (FEV1) of man with moderately severe COPD. As to the kind of experiment: Sequential 2-week treatments in one person with moderately severe COPD. In kind it is in vivo, human. Here is the method: After having stable lung function for around a month, they took 2.73 g activated charcoal in water daily for 2 weeks. […] After that, […] instead took 270 mg I2 daily in a vegetable capsule daily for 2 weeks. […] Thereafter, […] instead took 100 mg potassium perchlorate daily for 2 weeks. […] Following this, […] instead took 3 g IAC (prepared according to example 2, and consisting of 2.73 g activated charcoal with 270 mg iodine) daily for 2 weeks. […] Finally, they took a combination of 100 mg potassium perchlorate and 3 g IAC daily for 2 weeks.

Data set [4] concerns the target T1, sodium/iodide symporter (NIS) (Homo sapiens, UniProt Q92911).
T1 construct: host or cells: thyroid gland of human subjects (in vivo)
T1 sequence (Q92911 1-643): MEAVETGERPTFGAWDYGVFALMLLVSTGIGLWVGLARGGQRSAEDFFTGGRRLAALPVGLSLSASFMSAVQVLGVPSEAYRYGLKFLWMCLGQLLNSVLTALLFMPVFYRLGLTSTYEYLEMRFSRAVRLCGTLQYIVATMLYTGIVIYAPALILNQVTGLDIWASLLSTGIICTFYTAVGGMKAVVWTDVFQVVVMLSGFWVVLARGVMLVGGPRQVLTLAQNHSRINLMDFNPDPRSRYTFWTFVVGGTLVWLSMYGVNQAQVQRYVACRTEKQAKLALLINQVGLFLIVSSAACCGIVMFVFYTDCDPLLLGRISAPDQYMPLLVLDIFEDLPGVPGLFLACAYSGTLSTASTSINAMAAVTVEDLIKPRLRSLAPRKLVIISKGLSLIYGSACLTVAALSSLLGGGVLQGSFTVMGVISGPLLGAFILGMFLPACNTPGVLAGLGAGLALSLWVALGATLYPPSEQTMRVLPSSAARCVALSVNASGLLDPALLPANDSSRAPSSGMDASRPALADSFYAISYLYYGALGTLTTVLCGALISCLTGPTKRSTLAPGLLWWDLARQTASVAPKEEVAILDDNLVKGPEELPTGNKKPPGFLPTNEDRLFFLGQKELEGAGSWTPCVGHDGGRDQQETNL
As to conditions: humans; cited from earlier work.

The conditions of data set [5]: in vivo; cited from earlier work.
In data set [6] the test system is patients with COPD. The conditions noted are these: administered orally; cited from earlier work.

`N#C[S-].[Na+]` [thiocyanate, Thiocyanate]: in data set [1], the “relative potency for inhibiting iodide uptake by the sodium/iodide symporter” value is “lower than that of perchlorate”.
Regarding Iodinated glycerol, the “improvement in pulmonary function” value in data set [2] (16 weeks treatment) was “lack significant improvement”. The side effects entry in data set [2] (human, in vivo) is recorded as “side effects such as iodine poisoning”.
As for `[O-][Cl+3]([O-])([O-])O` [potassium perchlorate], in data set [3] (daily for 2 weeks, one patient), the “effect on lung function (FEV1), in words” value is “did not improve the lung function at all”. In addition, the “level that can temporarily inhibit the thyroid gland's ability to adsorb iodine from the bloodstream” value in data set [4] is “above 0.007 mg/(kg·d)”. Besides, the “metabolism and storage in the body” value in data set [5] was “neither metabolised nor stored in the body”.
In the case of `II` [I2, iodine], the “effect on lung function (FEV1), in words” value in data set [3] (in vivo) is “did not improve their lung function”. The “effect on lung function” value in data set [6] is “does not improve the lung function”.
